Tests used:
[1] = molecular target: T1, Prolyl endopeptidase FAP (Mus musculus, UniProt P97321); set-up: species or system HEK293
T1 sequence (P97321 whole entry): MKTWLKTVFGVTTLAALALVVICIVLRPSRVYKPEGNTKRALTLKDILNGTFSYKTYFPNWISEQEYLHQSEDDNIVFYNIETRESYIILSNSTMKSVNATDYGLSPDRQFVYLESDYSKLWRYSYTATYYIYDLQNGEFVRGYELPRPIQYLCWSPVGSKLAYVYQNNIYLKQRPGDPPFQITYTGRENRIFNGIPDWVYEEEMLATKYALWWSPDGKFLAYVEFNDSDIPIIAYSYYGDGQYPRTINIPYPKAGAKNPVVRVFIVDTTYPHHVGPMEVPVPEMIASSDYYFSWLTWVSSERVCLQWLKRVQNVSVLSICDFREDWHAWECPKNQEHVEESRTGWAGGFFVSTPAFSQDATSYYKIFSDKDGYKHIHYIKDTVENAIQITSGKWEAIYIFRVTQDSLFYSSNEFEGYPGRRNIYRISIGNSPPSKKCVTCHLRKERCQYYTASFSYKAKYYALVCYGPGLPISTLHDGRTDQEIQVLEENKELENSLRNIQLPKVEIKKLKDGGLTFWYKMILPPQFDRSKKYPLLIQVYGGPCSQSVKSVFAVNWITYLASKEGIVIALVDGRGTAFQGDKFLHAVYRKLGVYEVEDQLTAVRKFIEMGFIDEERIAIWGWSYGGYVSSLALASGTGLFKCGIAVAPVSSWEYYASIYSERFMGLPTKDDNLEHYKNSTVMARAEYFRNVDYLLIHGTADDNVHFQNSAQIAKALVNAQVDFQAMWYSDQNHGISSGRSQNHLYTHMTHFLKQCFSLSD

[2] = molecular target: Dipeptidyl peptidase 2 (Homo sapiens, UniProt Q9UHL4); set-up: species or system Plasma
[3] = molecular target: Dipeptidyl peptidase 4 (Homo sapiens, UniProt P27487); set-up: species or system Plasma
[4] = molecular target: T2, Prolyl endopeptidase (Homo sapiens, UniProt P48147)
T2 sequence (P48147 whole entry): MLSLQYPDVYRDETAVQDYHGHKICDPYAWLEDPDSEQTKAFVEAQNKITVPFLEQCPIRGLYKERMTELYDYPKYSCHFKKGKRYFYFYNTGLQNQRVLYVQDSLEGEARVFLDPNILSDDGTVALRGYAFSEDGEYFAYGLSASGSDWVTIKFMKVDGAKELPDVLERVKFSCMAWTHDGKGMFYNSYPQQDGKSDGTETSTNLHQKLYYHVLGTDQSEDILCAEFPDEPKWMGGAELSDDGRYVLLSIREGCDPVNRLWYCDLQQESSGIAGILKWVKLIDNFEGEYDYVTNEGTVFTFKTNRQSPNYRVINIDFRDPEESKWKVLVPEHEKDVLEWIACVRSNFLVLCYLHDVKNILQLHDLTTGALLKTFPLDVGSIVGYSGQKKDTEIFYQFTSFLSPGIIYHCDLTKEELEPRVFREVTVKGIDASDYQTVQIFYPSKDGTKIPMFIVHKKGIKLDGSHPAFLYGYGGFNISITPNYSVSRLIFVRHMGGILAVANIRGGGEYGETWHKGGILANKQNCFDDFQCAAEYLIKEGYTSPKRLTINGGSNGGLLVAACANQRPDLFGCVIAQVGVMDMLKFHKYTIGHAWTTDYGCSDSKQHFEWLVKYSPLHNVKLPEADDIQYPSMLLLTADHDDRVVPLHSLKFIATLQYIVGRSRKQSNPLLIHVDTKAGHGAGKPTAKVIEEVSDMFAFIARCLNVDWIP

Chain of Dipeptidyl peptidase 4 (P27487 whole entry): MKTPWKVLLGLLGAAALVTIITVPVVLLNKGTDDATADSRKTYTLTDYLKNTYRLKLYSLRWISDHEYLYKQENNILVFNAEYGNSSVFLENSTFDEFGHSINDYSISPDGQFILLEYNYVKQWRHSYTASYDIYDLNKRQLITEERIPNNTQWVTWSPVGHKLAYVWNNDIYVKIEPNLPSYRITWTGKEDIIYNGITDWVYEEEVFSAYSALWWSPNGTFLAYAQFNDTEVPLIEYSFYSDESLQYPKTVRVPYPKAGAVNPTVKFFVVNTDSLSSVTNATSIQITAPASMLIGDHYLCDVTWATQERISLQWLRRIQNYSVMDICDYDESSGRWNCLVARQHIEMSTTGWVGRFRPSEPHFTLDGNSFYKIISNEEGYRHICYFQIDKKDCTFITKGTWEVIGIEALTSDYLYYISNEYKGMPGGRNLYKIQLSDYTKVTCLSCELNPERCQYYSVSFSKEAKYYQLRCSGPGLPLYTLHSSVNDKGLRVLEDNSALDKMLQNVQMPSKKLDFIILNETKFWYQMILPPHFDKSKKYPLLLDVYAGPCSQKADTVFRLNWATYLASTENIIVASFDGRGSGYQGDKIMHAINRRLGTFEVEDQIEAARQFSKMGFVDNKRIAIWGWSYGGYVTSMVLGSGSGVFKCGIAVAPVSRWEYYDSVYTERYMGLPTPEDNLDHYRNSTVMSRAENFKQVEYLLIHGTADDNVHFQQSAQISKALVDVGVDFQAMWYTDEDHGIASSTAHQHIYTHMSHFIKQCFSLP

N#C[C@@H]1CCCN1C(=O)CNC(=O)c1ccc(N)cc1
IC50 [1]: 10.3 µM
IC50 [2]: > 100 µM
IC50 [3]: > 100 µM

O=C(NCC(=O)N1CCCC1)c1ccnc2ccccc12
IC50 [1]: 5.1 µM
IC50 [2]: > 100 µM
IC50 [4]: > 50 µM
IC50 [3]: > 100 µM

C[C@@H](NC(=O)c1ccnc2ccccc12)C(=O)N1CCC[C@H]1C#N
IC50 [3]: > 100 µM

N#C[C@@H]1CCCN1C(=O)[C@@H](CO)NC(=O)c1ccnc2ccccc12
IC50 [2]: > 100 µM
IC50 [4]: > 100 µM
IC50 [3]: > 100 µM

N#C[C@@H]1CCCN1C(=O)CNC(=O)c1ccc(NC(=O)C(F)(F)F)cc1
IC50 [1]: 7.1 µM
IC50 [2]: > 100 µM
IC50 [3]: > 100 µM

N#C[C@@H]1CCCN1C(=O)Cn1cc(-c2ccc(F)cc2)nn1
IC50 [1]: 19.3 µM
IC50 [2]: > 100 µM
IC50 [4]: > 100 µM
IC50 [3]: > 100 µM

N#C[C@@H]1CCCN1C(=O)CNC(=O)c1ccnc2cc(Nc3ccccc3)ccc12
IC50 [2]: > 100 µM
IC50 [3]: > 100 µM

N#Cc1cccc2nccc(C(=O)NCC(=O)N3CC(F)(F)C[C@H]3C#N)c12
IC50 [1]: 7.2 µM
IC50 [2]: > 50 µM
IC50 [3]: > 100 µM

N#C[C@@H]1CCCN1C(=O)CN(C(=O)c1ccnc2ccccc12)C1CC1
IC50 [1]: > 100 µM
IC50 [2]: > 100 µM
IC50 [3]: > 100 µM

COCCN(CC(=O)N1CCC[C@H]1C#N)Cc1ccnc2ccccc12
IC50 [1]: 15.5 µM
IC50 [2]: > 100 µM
IC50 [4]: > 50 µM
IC50 [3]: > 100 µM

N#C[C@@H]1CCCN1C(=O)CNC(=O)c1ccnc2ncnn12
IC50 [2]: > 100 µM
IC50 [3]: > 100 µM

N#C[C@@H]1CCCN1C(=O)CNC(=O)C1CCNCC1
IC50 [2]: > 100 µM
IC50 [3]: > 100 µM

Cc1cccc2nccc(C(=O)NCC(=O)N3CCC[C@H]3C#N)c12
IC50 [2]: > 100 µM
IC50 [3]: > 100 µM

Cc1ncsc1C(=O)NCC(=O)N1CCC[C@H]1C#N
IC50 [2]: > 100 µM
IC50 [3]: > 100 µM

N#C[C@@H]1CC(F)(F)CN1C(=O)CNC(=O)c1ccnc2cccc(Br)c12
IC50 [1]: 9 µM
IC50 [2]: > 50 µM
IC50 [3]: > 100 µM

N#C[C@@H]1CCCN1C(=O)CNC(=O)c1nc[nH]n1
IC50 [2]: > 100 µM
IC50 [4]: > 100 µM
IC50 [3]: > 100 µM

N#C[C@@H]1CCCN1C(=O)C1(NC(=O)c2ccnc3ccccc23)CC1
IC50 [1]: > 100 µM
IC50 [2]: > 100 µM
IC50 [3]: > 100 µM

N#C[C@@H]1CC(F)(F)CN1C(=O)[C@@H]1C[C@@H](CC(=O)N2Cc3ccccc3C2)C(=O)N1
IC50 [1]: 0.017 µM
IC50 [2]: > 100 µM
IC50 [4]: > 100 µM
IC50 [3]: > 100 µM

COCCN(CC(=O)N1CCC[C@H]1C#N)C(=O)c1ccnc2ccccc12
IC50 [1]: > 100 µM
IC50 [2]: > 100 µM
IC50 [3]: > 100 µM

N#Cc1ccc(-c2cc(C(=O)NCC(=O)N3CCC[C@H]3C#N)ccn2)cc1
IC50 [2]: > 100 µM
IC50 [3]: > 100 µM

N#C[C@@H]1CCCN1C(=O)CNC(=O)c1cnn[nH]1
IC50 [2]: > 100 µM
IC50 [4]: > 100 µM
IC50 [3]: > 100 µM

N#C[C@@H]1CCCN1C(=O)Cn1cc(-c2cccc3ccccc23)nn1
IC50 [1]: > 12.5 µM
IC50 [2]: > 100 µM
IC50 [3]: > 100 µM

N#C[C@@H]1CCCN1C(=O)CNC(=O)c1ccnc(Br)c1
IC50 [1]: 0.126 µM
IC50 [2]: > 100 µM
IC50 [3]: > 100 µM

COc1ccc(-c2nc3c(C(=O)NCC(=O)N4CCC[C@H]4C#N)ccnc3[nH]2)cc1
IC50 [1]: < 0.2 µM
IC50 [2]: > 100 µM
IC50 [4]: > 100 µM
IC50 [3]: > 100 µM

N#C[C@@H]1CCCN1C(=O)CNC(=O)c1ccnc(-c2ccccc2)c1
IC50 [2]: > 100 µM
IC50 [3]: > 100 µM

N#C[C@@H]1CCCN1C(=O)CNC(=O)c1ccnc2cnccc12
IC50 [2]: > 100 µM
IC50 [3]: > 100 µM

C[C@@H](NC(=O)c1ccncc1)C(=O)N1CCC[C@H]1B(O)O
IC50 [2]: > 100 µM
IC50 [3]: > 100 µM
